Results taken from patent publication US6022561A, “Bilayers preparations” (Scotia Lipidteknik AB, priority 1994, dated 2000).
Counter-ions that a name gives are not always drawn.

Assays:
[1] = test system: haemolysis; assay: Haemolysis in vivo, preliminary studies; set-up: species or system rats
[2] = test system: cancer cells; assay: Activity against cancer cells in vitro; type: cell-based
[3] = test system: human whole blood; assay: Test 4. In vitro haemolysis test; type: cell-based; details: Li-GLA dissolved in 0.9% saline
Protocol: The samples were then incubated at 37° C. in an oxygen:carbon dioxide, 95:5, enriched atmosphere, 3 l/min, for 1 h, with constant gentle shaking. […] All samples were then spun for 2 min in an Eppendorf Microfuge (Brinkman Instruments Ltd, Canada) and finally analyzed on a centrifugal analyser (Cobas Bioanalyser; Hoffmann-La Roche Ltd, Canada) with UV scan of 540 nm.

CCCCC/C=C\C/C=C\C/C=C\CCCCC(=O)O [Li-GLA, lithium salt of gammalinolenic acid]
"Red urine" in rats [1]: does
Activity against cancer cells in vitro, free vs liposomal Li-GLA [2]: almost identical
Concentration causing 100% haemolysis [3]: 4000 to 5000 µM
